Assay results as given in patent US20160075653A1, “NEMATICIDAL N-(PHENYLCYCLOALKYL)CARBOXAMIDES AND N-(PHENYLCYCLOALKYL)THIOCARBOXAMIDES” (BAYER CROPSCIENCE AKTIENGESELLSCHAFT, priority 2013, published 2016).
Like-named read-outs stand apart in the source and are kept apart here.

Experiments:
Meloidogyne incognita = Meloidogyne incognita test (MELGIN), gall formation on salad seedlings; type: in vivo; details: application rate 20 ppm, after 14 days
Procedure: Meioidovnve incomita—Test (MELGIN)
Solvent: 125.0 parts by weight of acetone
To produce a suitable preparation of active compound, 1 part by weight of active compound is mixed with the stated amount of solvent, and the concentrate is diluted with water to the desired concentration.
Vessels are filled with sand, a solution of the active ingredient, a suspension containing eggs and larvae of the southern root-knot nematode (Meloidogyne incognita) and salad seeds. The salad seeds germinate and the seedlings grow. Galls develop in the roots.
After 14 days the nematicidal activity is determined on the basis of the percentage of gall formation. 100% means that no galls were found; 0% means the number of galls found on the roots of the treated plants was equal to that in untreated control plants.

[1] = Measurement of log P values by HPLC on reversed phase columns (methods [a] pH 2.3, [b] pH 2.7, [c] pH 7.8); type: physicochemical; details: for chromatographic logP: reversed phase HPLC columns
How it was run: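 Retention times were converted to log P by linear interpolation between linear alkan-2-one standards (3 to 16 carbons) of known log P. Eluents, each with 10% to 95% acetonitrile gradient: phosphoric acid 0.1% at pH 2.3 [a]; formic acid 0.1% at pH 2.7, LC-MS [b]; ammonium hydrogen carbonate 0.001 molar at pH 7.8, LC-MS [c].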

[2] = HPLC reversed phase, method [b] (pH 2.7)
[3] = HPLC on reversed phase column, method [b], pH 2.7
[4] = method [b], HPLC reversed phase, pH 2.7
[5] = HPLC on reversed phase column, method [c], pH 7.8

Row | SMILES | nematicidal activity (percentage of gall formation; 100% = no galls) (Meloidogyne incognita) | logP [1, 2] | further results
1 | O=C(NC1CCC1c1ccc(Cl)cc1Cl)c1ccccc1Br (stereo not drawn) [Compound 472] | 90% | 3.60^[b] | 
2 | O=C(N[C@@H]1CC[C@@H]1c1ccc(F)cc1C(F)(F)F)c1nccnc1Cl (relative stereo) [Compound 516] | 100% | 2.89^[b] | 
3 | O=C(N[C@@H]1CC[C@@H]1c1ccc(F)cc1C(F)(F)F)c1ccccc1C(F)(F)F (relative stereo) [Compound 495] | 100% | 3.51^[b] | 
4 | O=C(N[C@@H]1CC[C@@H]1c1ccc(F)cc1C(F)(F)F)c1ccccc1Cl (relative stereo) [Compound 509] | 100% | 3.34^[b] | 
5 | O=C(NC1CCC1c1c(F)cccc1F)c1ccccc1Cl (stereo not drawn) [Compound 443] | 90% | 2.97^[b] | 
6 | O=C(N[C@@H]1CC[C@@H]1c1ccccc1C(F)(F)F)c1cccnc1 (relative stereo) [Compound 619] | 90% |  | logP [1, 3]: 2.06^[b]
7 | O=C(N[C@@H]1CC[C@@H]1c1cc(F)ccc1C(F)(F)F)c1ccccc1I (relative stereo) [Compound 541] | 100% | 3.52^[b] | 
8 | O=C(N[C@@H]1CC[C@@H]1c1ccc(F)cc1C(F)(F)F)c1cccnc1C(F)(F)F (relative stereo) [Compound 489] | 100% | 3.02^[b] | 
9 | O=C(N[C@@H]1CC[C@@H]1c1c(F)cccc1C(F)(F)F)c1ccccc1[N+](=O)[O-] (relative stereo) [Compound 561] | 100% | 3.03^[b] | 
10 | Cn1cc(C(=O)NC2CCC2c2ccc(F)cc2C(F)(F)F)c(C(F)F)n1 (stereo not drawn) [Compound 485] | 90% | 2.84^[b] | 
11 | O=C(NC1CCCC1c1ccccc1Cl)c1ccccc1C(F)(F)F (stereo not drawn) [Compound 296] | 90% | 3.55^[b] | 
12 | O=C(N[C@@H]1CC[C@@H]1c1ccccc1Cl)c1cccnc1 (relative stereo) [Compound 555] | 90% | 1.18^[b] | 
13 | CCOc1ccccc1C(=O)N[C@@H]1CCC[C@@H]1c1ccc(F)c(F)c1 (relative stereo) [Compound 115] | 90% |  | logP ([1]; HPLC on reversed phase columns, method [b], pH 2.7): 3.80^[b]
14 | O=C(N[C@@H]1CC[C@@H]1c1cccc(F)c1C(F)(F)F)c1ncccc1Cl (relative stereo) [Compound 617] | 100% |  | logP [1, 3]: 2.97^[b]
15 | O=C(NC1CCC1c1ccccc1C(F)(F)F)c1ccccc1Br (stereo not drawn) [Compound 216] | 100% |  | logP [1, 4]: 3.32^[b]
16 | O=C(N[C@@H]1CC[C@@H]1c1ccc(Cl)cc1Cl)c1ncccc1Cl (relative stereo) [Compound 260] | 100% | 3.28^[b] | 
17 | O=C(NC1CCC1c1ccc(F)cc1C(F)(F)F)c1sccc1I (stereo not drawn) [Compound 519] | 90% | 4.09^[b] | 
18 | O=C(NC1CCCC1c1ccc(Cl)cc1Cl)c1ccccc1I (stereo not drawn) [Compound 352] | 100% | 4.04^[b] | 
19 | O=C(NC1CCCC1c1ccc(Cl)cc1Cl)c1ccccc1C(F)(F)F (stereo not drawn) [Compound 353] | 100% | 4.04^[b] | 
20 | O=C(NC1CCCC1c1c(F)cccc1F)c1ccccc1Cl (stereo not drawn) [Compound 311] | 90% | 3.24^[b] | 
21 | O=C(NC1CCC1c1ccccc1C(F)(F)F)c1ncccc1Br (stereo not drawn) [Compound 695] | 100% |  | logP [1, 3]: 3.17^[b]; logP [1, 5]: 3.10^[c];
22 | O=C(N[C@@H]1CC[C@@H]1c1cccc(F)c1C(F)(F)F)c1c(F)cccc1F (relative stereo) [Compound 639] | 100% |  | logP [1, 3]: 3.08^[b]
23 | O=C(N[C@@H]1CC[C@@H]1c1ccc(F)cc1C(F)(F)F)c1ccccc1 (relative stereo) [Compound 505] | 90% | 2.97^[b] | 

Row | SMILES | nematicidal activity (percentage of gall formation; 100% = no galls) (Meloidogyne incognita) | logP [1, 2] | further results
24 | O=C(N[C@@H]1CC[C@@H]1c1c(F)cccc1C(F)(F)F)c1ncccc1Cl (relative stereo) [Compound 537] | 100% | 2.92^[b] | 
25 | CS(=O)(=O)c1ccccc1C(=O)N[C@@H]1C[C@@H]1c1ccc(Cl)cc1Cl (relative stereo) [Compound 609] | 100% |  | logP [1, 3]: 2.62^[b]; logP [1, 5]: 2.61^[c];
26 | O=C(NC1CCC1c1ccccc1C(F)(F)F)c1ncccc1Cl (stereo not drawn) [Compound 215] | 90% |  | logP [1, 4]: 3.01^[b]
27 | Cc1nc(C(F)(F)F)c(C(=O)N[C@@H]2CC[C@@H]2c2ccccc2Cl)s1 (relative stereo) [Compound 545] | 100% | 3.15^[b] | 
28 | O=C(NC1CCC1c1cc(F)ccc1C(F)(F)F)c1ncccc1Cl (stereo not drawn) [Compound 518] | 100% | 3.08^[b] | 
29 | O=C(NC1CCC1c1c(F)cccc1F)c1ccccc1Br (stereo not drawn) [Compound 227] | 100% |  | logP [1, 4]: 2.97^[b]
30 | O=C(N[C@@H]1CC[C@@H]1c1cc(F)ccc1C(F)(F)F)c1cccnc1Cl (relative stereo) [Compound 571] | 100% | 2.75^[b] | 
31 | O=C(NC1CCC1c1ccccc1C(F)(F)F)c1ccccc1Cl (stereo not drawn) [Compound 432] | 100% | 3.30^[b] | 
32 | O=C(N[C@H]1CCC1c1c(F)cccc1F)c1cccnc1C(F)(F)F (stereo in doubt) [Compound 236, cis-N-[2-(2,6-difluorophenyl)cyclobutyl]-2-(trifluoromethyl)nicotinamide] | 100% |  | chromatographic logP ([1]; HPLC-MS, method letter not given, read-out: log P): 2.6; chromatographic logP ([1]; pH 2.7, method [b], HPLC reversed phase, pH 2.7, read-out: logP): 2.6
33 | O=C(NC1CCC1c1ccccc1C(F)(F)F)c1ccccc1C(F)(F)F (stereo not drawn) [Compound 434] | 90% | 3.44^[b] | 
34 | O=C(N[C@@H]1CC[C@@H]1c1ccccc1Cl)c1c(F)cccc1F (relative stereo) [Compound 252] | 100% | 2.86^[b] | 
35 | O=C(NC1CCC1c1ccccc1C(F)(F)F)c1nccnc1C(F)(F)F (stereo not drawn) [Compound 684] | 100% |  | logP [1, 3]: 3.15^[b]; logP [1, 5]: 3.10^[c];
36 | O=C(N[C@@H]1CC[C@@H]1c1c(F)cccc1C(F)(F)F)c1ccccc1 (relative stereo) [Compound 551] | 100% | 3.23^[b] | 
37 | O=C(N[C@@H]1CC[C@@H]1c1c(F)cccc1C(F)(F)F)c1sccc1I (relative stereo) [Compound 584] | 100% | 4.00^[b] | 
38 | O=C(NC1CCC1c1ccccc1C(F)(F)F)c1ccccc1I (stereo not drawn) [Compound 427] | 100% | 3.44^[b] | 
39 | O=C(NC1CC1c1ccc(Cl)cc1Cl)c1sccc1Cl (stereo not drawn) [Compound 213] | 100% |  | logP [1, 4]: 4.08^[b]; logP ([1]; method [c], HPLC reversed phase, pH 7.8): 4.02^[c];
40 | Cn1cc(C(=O)N[C@@H]2CC[C@@H]2c2cc(F)ccc2C(F)(F)F)c(C(F)F)n1 (relative stereo) [Compound 556] | 90% | 2.85^[b] | 
41 | O=C(N[C@@H]1CC[C@@H]1c1cccc(F)c1C(F)(F)F)c1cccnc1 (relative stereo) [Compound 631] | 90% |  | logP [1, 3]: 2.12^[b]
42 | O=C(NC1CCC1c1ccccc1C(F)(F)F)c1cccnc1C(F)(F)F (stereo not drawn) [Compound 235] | 100% |  | logP [1, 4]: 2.94^[b]
43 | O=C(N[C@@H]1CC[C@@H]1c1ccc(F)cc1C(F)(F)F)c1cccnc1Cl (relative stereo) [Compound 515] | 100% | 2.73^[b] | 
44 | Cc1occc1C(=O)N[C@@H]1C[C@@H]1c1ccc(Cl)cc1Cl (relative stereo) [Compound 611] | 90% |  | logP [1, 3]: 3.02^[b]; logP [1, 5]: 2.89^[c];
45 | O=C(NC1CC1c1ccc(Cl)cc1)c1ccccc1C(F)(F)F (stereo not drawn) [Compound 271] | 90% | 2.98^[b] | logP ([1]; HPLC reversed phase, method [c] pH 7.8): 2.94^[c];
46 | O=C(N[C@@H]1CC[C@@H]1c1cc(F)ccc1C(F)(F)F)c1ccccc1Br (relative stereo) [Compound 560] | 100% | 3.38^[b] | 
